Source: patent US9428487B2, “Heteroaromatic amides and thioamides as pesticides” (Bayer Intellectual Property GmbH, priority 2008, dated 2016)

How the values were obtained:
[1] = Determination of log P values by HPLC on reversed-phase column (formic acid method); format: physicochemical; conditions: reversed-phase HPLC column (C 18), pH 3.4, HPLC, reversed-phase C 18, acidic range (pH 3.4), formic acid eluents, 55° C.; read-out: logP (HCOOH)
Procedure: 1) Description of Method for Determining the Log P Values (Formic Acid Method)
The log P values reported in the table were determined according to EEC-Directive 79/831 Annex V.A8 by HPLC (High Performance Liquid Chromatography) on a reversed-phase column (C 18). […]
Eluent A: acetonitrile+1 ml of formic acid/liter. Eluent B: water+0.9 ml of formic acid/liter.
Gradient: from 10% eluent A/90% eluent B to 95% eluent A/5% eluent B in 4.25 min
The calibration was effected with unbranched alkan-2-ones (with 3 to 16 carbon atoms), whose log P values are known (determination of the log P values on the basis of the retention times by linear interpolation between two successive alkanones). The lambda-max values were determined with reference to the UV spectra from 200 nm to 400 nm in the maxima of the chromatographic signals.

[2] = test system: green peach aphid (Myzus persicae); test: Myzus test; format: in vivo; conditions: application rate 500 g/ha, spray on Chinese cabbage leaf slices, read-out: efficacy (aphids killed)
Procedure: • Solvent: 78.0 parts by weight of acetone • 1.5 parts by weight of dimethylformamide • Emulsifier: 0.5 part by weight of alkylaryl polyglycol ether
To produce an appropriate active ingredient formulation, 1 part by weight of active ingredient is mixed with the amounts of solvent and emulsifier specified and the concentrate is diluted to the desired concentration with emulsifier-containing water.
Chinese cabbage leaf slices (Brassica pekinensis) infested by all stages of the green peach aphid (Myzus persicae) are sprayed with an active ingredient formulation of the desired concentration.
After the desired time, the efficacy in % is determined 100% means that all aphids have been killed; 0% means that no aphids have been killed.

| chromatographic logP [1] | Compound | pest or weed control at 500 g/ha [2] [%] |
| --- | --- | --- |
| 1.98 | Cc1nc(-c2cccnc2)sc1C(=O)NCC(F)(F)Br [Compound 121] | ≥ 70 |
| 1.13 | C=CC[n+]1cccc(-c2nc(C)c(C(=O)NCC(F)(F)F)s2)c1 [Compound 122] | ≥ 70 |
| 2.42 | Cc1nc(-c2cccnc2)sc1C(=O)NC1CCC(C(F)(F)F)CC1 (stereo not shown) [Compound 123] | ≥ 70 |
| 2.11 | Cc1nc(-c2cccnc2)sc1C(=O)N(CCCF)CC(F)(F)F [Compound 124] | ≥ 70 |
| 1.69 | Cc1nc(-c2cccnc2)sc1C(=O)NCC(C)Cl (stereo not shown) [Compound 125] | ≥ 70 |
| 0.98 | CN(Cc1cccnc1)C(=O)c1cnc(-c2cccnc2)s1 [Compound 127] | ≥ 70 |
| 1.23 | COC1(NC(=O)c2sc(-c3cccnc3)nc2C)CC1 [Compound 129] | ≥ 70 |
| 0.41 | CN(Cc1ccccn1)C(=O)c1cnc(-c2cccnc2)s1 [Compound 134] | ≥ 70 |
| 0.46 | Cc1nc(-c2cccnc2)sc1C(=O)NCc1cccnc1 [Compound 135] | ≥ 70 |
| 1.28 | CCN(CC#N)C(=O)c1cnc(-c2cccnc2)s1 [Compound 137] | ≥ 70 |
| 1.09 | COC(=O)C[n+]1cccc(-c2nc(C)c(C(=O)NCC(F)(F)F)s2)c1 [Compound 138] | ≥ 70 |
| 1.93 | Cc1nc(-c2cccnc2)sc1C(=O)N(CC#N)C(=O)C1(F)CC1 [Compound 140] | ≥ 70 |
| 1.56 | Cc1nc(-c2cccnc2)sc1C(=O)N(CC#N)C(C)C [Compound 142] | ≥ 70 |
| 1.42 | CON(C)C(=O)c1sc(-c2cccnc2)nc1C [Compound 143] | ≥ 70 |
| 1.45 | CCOC1(NC(=O)c2sc(-c3cccnc3)nc2C)CC1 [Compound 144] | ≥ 70 |
| 1.45 | Cc1nc(-c2cccnc2)sc1C(=O)NCc1ncc(Cl)cn1 [Compound 147] | ≥ 70 |
| 1.19 | Cc1nc(-c2cccnc2)sc1C(=O)NCCC#N [Compound 150] | ≥ 70 |
| 2.95 | Cc1nc(-c2cccnc2)sc1C(=O)NC1CC(C(F)(F)F)CC(C(F)(F)F)C1 (stereo not shown) [Compound 152] | ≥ 70 |
| 1.48 | Cc1nc(-c2cccnc2)sc1C(=O)NCC1COC(C)(C)O1 (stereo not shown) [Compound 155] | ≥ 70 |
| 1.69 | Cc1nc(-c2cccnc2)sc1C(=O)NC(C)(C#N)C1CCCO1 (stereo not shown) [Compound 157] | ≥ 70 |
| 1.27 | Cc1nc(-c2cccnc2)sc1C(=O)NCC1(C)CCCO1 (stereo not shown) [Compound 160] | ≥ 70 |
| 1.52 | Cc1cc(CN(C)C(=O)c2sc(-c3cccnc3)nc2C)no1 [Compound 164] | ≥ 70 |
| 1.06 | Cc1nc(C)n(C(C)CNC(=O)c2sc(-c3cccnc3)nc2C)n1 (stereo not shown) [Compound 165] | ≥ 70 |
| 1.44 | Cc1nc(CN(C)C(=O)c2cnc(-c3cccnc3)s2)c(C)o1 [Compound 166] | ≥ 70 |
| 0.69 | Cc1nc(-c2cccnc2)sc1C(=O)NCc1ccncc1 [Compound 169] | ≥ 70 |
| 1.68 | Cc1nc(-c2cccnc2)sc1C(=O)N(C)CC1CC1 [Compound 170] | ≥ 70 |

Further lines, the compound ahead of its results:

| Compound | chromatographic logP [1] | pest or weed control at 500 g/ha [2] [%] |
| --- | --- | --- |
| Cc1nc(-c2cccnc2)sc1C(=O)NCc1ccncn1 [Compound 126] | 0.9 | ≥ 70 |
| Cc1nc(-c2cccnc2)sc1C(=O)NNc1ncccn1 [Compound 128] | 0.75 | ≥ 70 |
| Cc1nc(-c2cccnc2)sc1C(=O)NCc1nccs1 [Compound 130] | 1.38 | ≥ 70 |
| Cc1nc(-c2cccnc2)sc1C(=O)N(Cc1ccco1)CC(F)(F)F [Compound 131] | 2.56 | ≥ 70 |
| Cc1nc(-c2cccnc2)sc1C(=O)NCC1OCC(CCl)O1 (stereo not shown) [Compound 132] | 1.51 | ≥ 70 |
| Cc1nc(-c2cccnc2)sc1C(=O)N(C)CC(=O)N(C)C [Compound 133] | 0.8 | ≥ 70 |
| CN(CCF)C(=O)c1cnc(-c2cccnc2)s1 [Compound 136] | 1.17 | ≥ 70 |
| CC#CCN(CC(F)(F)F)C(=O)c1sc(-c2cccnc2)nc1C [Compound 139] | 2.47 | ≥ 70 |
| CCOC(=O)C(CC)N(C)C(=O)c1sc(-c2cccnc2)nc1C (stereo not shown) [Compound 141] | 2.1 | ≥ 70 |
| Cc1nc(-c2cccnc2)sc1C(=O)NCc1cc(C)n(C)n1 [Compound 145] | 1.38 | ≥ 70 |
| Cc1nc(-c2cccnc2)sc1C(=O)NC(C(C)C)C(F)(F)F (stereo not shown) [Compound 146] | 2.48 | ≥ 70 |
| CSCCN(C)C(=O)c1cnc(-c2cccnc2)s1 [Compound 148] | 1.38 | ≥ 70 |
| Cc1nc(-c2cccnc2)sc1C(=O)NC1CCCC(C(F)(F)F)C1 (stereo not shown) [Compound 149] | 2.48 | ≥ 70 |
| Cc1nc(-c2cccnc2)sc1C(=O)NC(C)c1nn(C)c(=O)n1C (stereo not shown) [Compound 151] | 1.01 | ≥ 70 |
| Cc1nc(-c2cccnc2)sc1C(=O)NCC1CCCCC1 [Compound 153] | 2.43 | ≥ 70 |
| CC(c1ccccn1)N(C)C(=O)c1cnc(-c2cccnc2)s1 (stereo not shown) [Compound 154] | 1.21 | ≥ 70 |
| C#CC(C)(C)NC(=O)c1sc(-c2cccnc2)nc1C [Compound 156] | 1.66 | ≥ 70 |
| C#CC(C)ONC(=O)c1sc(-c2cccnc2)nc1C (stereo not shown) [Compound 158] | 1.48 | ≥ 70 |
| Cc1nc(-c2cccnc2)sc1C(=O)N(C)CC1COCCO1 (stereo not shown) [Compound 159] | 1.26 | ≥ 70 |
| Cc1cc(CN(C)C(=O)c2cnc(-c3cccnc3)s2)nn1C [Compound 161] | 1.26 | ≥ 70 |
| Cc1nc(-c2cccnc2)sc1C(=O)N(C)CC(=O)OC(C)C [Compound 162] | 1.78 | ≥ 70 |
| Cc1nc(-c2cccnc2)sc1C(=O)N(C)CCC#N [Compound 163] | 1.1 | ≥ 70 |
| Cc1nc(-c2cccnc2)sc1C(=O)NC1(c2ccccn2)CC1 [Compound 167] | 0.97 | ≥ 70 |
| Cc1nc(-c2cccnc2)sc1C(=O)NC(C)C(F)(F)F (stereo not shown) [Compound 168] | 1.89 | ≥ 70 |
